Assay [1] deals with T1, human GLP-1 receptor (Homo sapiens, UniProt P43220).
T1 construct: expressed in transfected cells; host or cells: membranes prepared from BHK cells (parent line BHKTS13), clone FCW467-12A
Description: GLP-1 receptor binding, competitive binding assay (125I-GLP-1, SPA) on isolated membranes.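 Further: test compounds added at a range of concentrations to membranes from cells expressing the human GLP-1 receptor, scored by displacement of labelled ligand, read with WGA SPA beads.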
Description: The purpose of this example is to test the receptor binding of the GLP-1 derivatives in vitro. The receptor binding is a measure of affinity of a derivative for the human GLP-1 receptor.
In this type of assay a labelled ligand (in this case ^125I-GLP-1) is bound to the receptor. Each derivative is added in a series of concentrations to isolated membranes containing the human GLP-1 receptor and displacement of the labelled ligand is monitored. The receptor binding is reported as the concentration at which half of the labelled ligand is displaced from the receptor, the IC50 value.
The following chemicals were used in the assay: Human serum albumin (HSA) (Sigma A1653), DMEM w/o phenol red (Gibco 11880-028), Pen/strep (Invitrogen 15140-122), G418 (Invitrogen 10131-027), 1 M Hepes (Gibco 15630), EDTA (Invitrogen 15575-038), PBS (Invitrogen 14190-094), fetal calf serum (Invitrogen 16140-071), EGTA, MgCl2 (Merck 1.05832.1000), Tween 20 (Amresco 0850C335), SPA particles (wheat germ agglutinin (WGA) SPA beads, Perkin Elmer RPNQ0001), [^125I]-GLP-1]-(7-36)NH2 (produced in-house), OptiPlate™-96 (Packard 6005290).
Buffer 1 consisted of 20 mM Na-HEPES plus 10 mM EDTA and pH was adjusted to 7.4. Buffer 2 consisted of 20 mM Na-HEPES plus 0.1 mM EDTA and pH was adjusted to 7.4. Assay buffer consisted of 50 mM HEPES supplemented with 5 mM EGTA, 5 mM MgCl2, 0.005% Tween 20 and pH was adjusted to 7.4. An 8% albumin stock consisted of HSA dissolved at 8% (w/v) in assay buffer. An 0.02% albumin stock consisted of HSA dissolved at 0.02% (w/v) in assay buffer.
The cells express the human GLP-1 receptor.
The cells were grown at 5% CO2 in DMEM, 10% fetal calf serum, 1% Pen/Strep (Penicillin/Streptomycin) and 1.0 mg/ml of the selection marker G418.
To make a membrane preparation the cells were grown to approximately 80% confluence. The cells were washed twice in phosphate-buffered saline and harvested. The cells were pelleted using a brief centrifugation and the cell pellet was kept on ice. The cell pellet was homogenised with ULTRA-THURRAX™ dispersing instrument for 20-30 seconds in a suitable amount of buffer 1 (e.g., 10 ml). The homogenate was centrifuged for 15 minutes. The pellet was re-suspended (homogenised) in 10 ml buffer 2 and centrifuged. This step was repeated once more. The resulting pellet was re-suspended in buffer 2 and the protein concentration was determined. The membranes were aliquoted and stored at minus 80° C.
For the receptor binding assay in the presence of low HSA (0.005%) 50 μl of the assay buffer was added to each well of an assay plate.
For the receptor binding assay in the presence of high HSA (2%) 50 μl of the 8% albumin stock was added to each well of an assay plate.
Cell membrane aliquots were thawed and diluted to their working concentration. Fifty μl were added to each well in the assay plate.
WGA SPA beads were suspended in assay buffer at 20 mg/ml. The suspension was diluted to 10 mg/ml in assay buffer just prior to addition to the assay plate. Fifty μl were added to each well in the assay plate.
The incubation was started by adding 25 μl of 480 pM solution of [^125I]-GLP-1]-(7-36)NH2 to each well of the assay plate. A 25 μl aliquot was reserved for measuring total counts/well.
The assay plate was incubated for 2 h at 30° C.
The assay plate was centrifuged for 10 min.
The assay plate was read in a Packard TopCount NXT instrument.
The data from the TopCount instrument were transferred to GraphPad Prism software. The software averaged the values for the replicates and performed a non-linear regression. IC50 values were calculated by the software and reported in nM.

The target of assay [2] is T1, human GLP-1 receptor. Description: In vitro potency, CRE luciferase reporter gene assay in BHK cells expressing the human GLP-1 receptor. The assay is classed as cell-based. The following applies: whole cell reporter gene assay, 3 h incubation, no HSA, averages of at least two replicates. The protocol: The purpose of this example is to test the activity, or potency, of the GLP-1 derivatives in vitro. The in vitro potency is the measure of human GLP-1 receptor activation in a whole cell assay.
Semaglutide was included for comparison.
In vitro potency was determined by measuring the response of the human GLP-1 receptor in a reporter gene assay. The assay was performed in a stably transfected BHK cell line that expresses the human GLP-1 receptor and contains the DNA for the cAMP response element (CRE) coupled to a promoter and the gene for firefly luciferase (CRE luciferase). When the human GLP-1 receptor is activated it results in the production of cAMP, which in turn results in the luciferase protein being expressed. When assay incubation is completed the luciferase substrate (luciferin) is added and the enzyme converts luciferin to oxyluciferin to produce bioluminescence. The luminescence is measured as the readout for the assay.
The cells used in this assay (clone FCW467-12A/KZ10-1) were BHK cells with BHKTS13 as a parent cell line. The cells were derived from a clone (FCW467-12A) that expresses the human GLP-1 receptor and were established by further transfection with CRE luciferase to obtain the current clone.
The cells were cultured at 5% CO2 in Cell Culture Medium. They were aliquoted and stored in liquid nitrogen. Before each assay an aliquot is taken up and washed twice in PBS before being suspended at the desired concentration in the assay specific buffer. For 96-well plates the suspension was made to give a final concentration of 5×10^3 cells/well.
The following chemicals were used in the assay: Pluronic F-68 (10%) (Gibco 2404), human serum albumin (HSA) (Sigma A9511), ovalbumin (Sigma A5503), DMEM w/o phenol red (Gibco 11880-028), 1 M Hepes (Gibco 15630), Glutamax 100× (Gibco 35050) and steadylite plus (PerkinElmer 6016757).
Cell Culture Medium consisted of DMEM medium with 10% FBS (Fetal Bovine Serum; Invitrogen 16140-071), 1 mg/ml G418 (Invitrogen 15140-122), 240 nM MTX (methotrexate; Sigma M9929) and 1% pen/strep (penicillin/streptomycin; Invitrogen 15140-122).
Assay Medium consisted of DMEM w/o phenol red, 10 mM Hepes and 1× Glutamax. The Assay Buffer consisted of 2% ovalbumin and 0.2% Pluronic F-68 in Assay Medium.
1) Cell stocks were thawed in a 37° C. water bath.
2) Cells were washed three times in PBS.
3) The cells were counted and adjusted to 5×10^3 cells/50 μl (1×10^5 cells/ml) in Assay Medium. A 50 μl aliquot of cells was transferred to each well in the assay plate.
4) Stocks of the test compounds and reference compounds were diluted to a concentration of 0.2 μM in Assay Buffer. Compounds were diluted 10-fold to give the following concentrations: 2×10^−7 M, […]; 2×10^−9 M, 2×10^−10 M, 2×10^−11 M, 2×10^−12 M, 2×10^−13 M, and 2×10^−14 M. 5) A 50 μl aliquot of compound or blank was transferred from the dilution plate to the assay plate. Compounds were tested at the following final concentrations: 1×10^−7 M, 1×10^−8 M; 1×10^−9 M, 1×10^−10 M, 1×10^−11 M, 1×10^−12 M, 1×10^−13 M, and 1×10^−14 M. 6) The assay plate was incubated for 3 h in a 5% CO2 incubator at 37° C. 7) The assay plate was removed from the incubator and allowed to stand at room temperature for 15 min. 8) A 100 μl aliquot of steadylite plus reagent was added to each well of the assay plate (reagent was light sensitive). 9) Each assay plate was covered with aluminum foil to protect it from light and shaken for 30 min at room temperature. 10) Each assay plate was read in a Packard TopCount NXT instrument. Calculations and Results
The data from the TopCount instrument were transferred to GraphPad Prism software. The software performs a non-linear regression (log(agonist) vs response).
A minimum of two replicates was measured for each sample. The reported values are averages of the replicates.
A general note: Reporter assays use an easily measured gene product as a stand-in for the process of interest.

[3] abbreviates: high serum albumin (2.0% HSA final assay concentration), read-out: High HSA IC50.
Setting [4] is: low serum albumin (max. 0.001% final assay concentration), read-out: Low HSA IC50.

We go through 4 compounds from US10010614B2, “Derivatives of GLP-1 like peptides, and uses thereof” (Novo Nordisk A/S, priority 2013, dated 2018).

Each structure is given as a SMILES string. Where two headings read alike, the source gives them in different places. Numbered stars: 1 amine (or outer) side, 2 acyl side, 3 side chain; on linkers, the order of the positions; unused ones are H or OH. Square brackets hold non-standard residues; d marks the D form. Side chains are listed from the residue outwards. Peptide text beside a SMILES is read from it. * marks the point of attachment. X4 = O=C(O)CCCCCCCCCCCCCCCCCCC(=O)N1CCC(C(=O)N[C@@H](CCC(=O)NCCCOCCOCCOCCCN*)C(=O)O)CC1; X3 = O=C(O)CCCCCCCCCCCCCCCCCCC(=O)N[C@@H](CCC(=O)NCCCOCCOCCOCCCNC(=O)COCC(=O)*)C(=O)O; C20 diacid = O=C(O)CCCCCCCCCCCCCCCCCCC(=O)*; γGlu = O=C(O)[C@H](CCC(=O)[*:2])N[*:1]; Desaminohistidyl = O=C(CCc1c[nH]cn1)*; Suc = O=C(CCC(=O)[*:2])[*:1]; AEEA = NCCOCCOCC(=O)O; Aib = CC(C)(N)C(=O)O

T1 sequence (P43220 24-463): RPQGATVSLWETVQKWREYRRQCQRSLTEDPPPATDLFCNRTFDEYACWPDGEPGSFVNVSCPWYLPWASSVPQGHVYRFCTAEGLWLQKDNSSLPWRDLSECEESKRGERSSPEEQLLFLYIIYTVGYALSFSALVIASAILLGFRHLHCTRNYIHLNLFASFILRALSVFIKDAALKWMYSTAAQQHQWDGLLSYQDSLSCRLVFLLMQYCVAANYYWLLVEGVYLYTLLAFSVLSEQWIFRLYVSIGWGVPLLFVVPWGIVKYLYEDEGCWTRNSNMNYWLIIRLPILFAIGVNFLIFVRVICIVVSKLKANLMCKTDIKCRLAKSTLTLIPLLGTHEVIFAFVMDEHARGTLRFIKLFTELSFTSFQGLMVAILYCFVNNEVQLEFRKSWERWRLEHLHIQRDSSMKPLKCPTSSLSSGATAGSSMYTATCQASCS

One may read the IC50 as the point on the concentration scale where inhibition reaches its midpoint. The EC50 is the midpoint of the concentration-response curve. Read a high EC50 as lower potency in that assay. Regarding `CC[C@H](C)[C@H](NC(=O)[C@H](Cc1ccccc1)NC(=O)[C@H](CCC(=O)O)NC(=O)[C@H](CCCNC(=N)N)NC(=O)[C@H](C)NC(=O)[C@H](C)NC(=O)[C@H](CCC(N)=O)NC(=O)[C@H](CCC(=O)O)NC(=O)[C@H](CCC(=O)O)NC(=O)[C@H](CC(C)C)NC(=O)[C@H](Cc1ccc(O)cc1)NC(=O)[C@H](CO)NC(=O)[C@H](CO)NC(=O)[C@@H](NC(=O)[C@H](CC(=O)O)NC(=O)[C@H](CO)NC(=O)[C@@H](NC(=O)[C@H](Cc1ccccc1)NC(=O)[C@@H](NC(=O)CNC(=O)[C@H](CCC(=O)O)NC(=O)C(C)(C)NC(=O)[C@@H](N)Cc1c[nH]cn1)[C@@H](C)O)[C@@H](C)O)C(C)C)C(=O)N[C@@H](C)C(=O)N[C@@H](Cc1c[nH]c2ccccc12)C(=O)N[C@@H](CC(C)C)C(=O)N[C@H](C(=O)N[C@@H](CCCNC(=N)N)C(=O)NCC(=O)N[C@@H](CCCNC(=N)N)C(=O)NCC(=O)N[C@@H](CCCCNC(=O)COCCOCCNC(=O)COCCOCCNC(=O)COCCOCCNC(=O)COCCOCCNC(=O)CC[C@H](NC(=O)CCCCCCCCCCCCCCCCCCC(=O)O)C(=O)O)C(=O)NCC(=O)NCC(=O)N[C@@H](CO)C(=O)N[C@@H](CCCCNC(=O)COCCOCCNC(=O)COCCOCCNC(=O)COCCOCCNC(=O)COCCOCCNC(=O)CC[C@H](NC(=O)CCCCCCCCCCCCCCCCCCC(=O)O)C(=O)O)C(=O)O)C(C)C` [Example 19] (H-H[Aib]EGTFTSDVSSYLEEQAAREFIAWLVRGRGK([AEEA-AEEA-AEEA-AEEA-γGlu-C20 diacid])GGSK([AEEA-AEEA-AEEA-AEEA-γGlu-C20 diacid])-OH; N-terminus and C-terminus assumed), the results for the IC50 at human GLP-1 receptor [1] (setting [3]) and at human GLP-1 receptor [1] (setting [4]) were 142 nM and 2.4 nM, respectively. The compound also returned an EC50 on human GLP-1 receptor [2] of 6.2 pM.

For the compound `CC[C@H](C)[C@H](NC(=O)[C@H](Cc1ccccc1)NC(=O)[C@H](CCC(=O)O)NC(=O)[C@H](CCCNC(=N)N)NC(=O)[C@H](C)NC(=O)[C@H](C)NC(=O)[C@H](CCC(N)=O)NC(=O)[C@H](CCC(=O)O)NC(=O)[C@H](CCC(=O)O)NC(=O)[C@H](CC(C)C)NC(=O)[C@H](Cc1ccc(O)cc1)NC(=O)[C@H](CO)NC(=O)[C@H](CO)NC(=O)[C@@H](NC(=O)[C@H](CC(=O)O)NC(=O)[C@H](CO)NC(=O)[C@@H](NC(=O)[C@H](Cc1ccccc1)NC(=O)[C@@H](NC(=O)CNC(=O)[C@H](CCC(=O)O)NC(=O)C(C)(C)NC(=O)CCc1cnc[nH]1)[C@@H](C)O)[C@@H](C)O)C(C)C)C(=O)N[C@@H](C)C(=O)N[C@@H](Cc1c[nH]c2ccccc12)C(=O)N[C@@H](CC(C)C)C(=O)N[C@H](C(=O)N[C@@H](CCCNC(=N)N)C(=O)NCC(=O)N[C@@H](CCCNC(=N)N)C(=O)NCC(=O)N[C@@H](CCCCNC(=O)COCCOCCNC(=O)COCCOCCNC(=O)COCCOCCNC(=O)COCCOCCNC(=O)CC[C@H](NC(=O)CCCCCCCCCCCCCCCCCCC(=O)O)C(=O)O)C(=O)NCC(=O)NCC(=O)N[C@@H](CO)C(=O)N[C@@H](CCCCNC(=O)COCCOCCNC(=O)COCCOCCNC(=O)COCCOCCNC(=O)COCCOCCNC(=O)CC[C@H](NC(=O)CCCCCCCCCCCCCCCCCCC(=O)O)C(=O)O)C(=O)O)C(C)C` [Example 20] (Desaminohistidyl-[Aib]EGTFTSDVSSYLEEQAAREFIAWLVRGRGK([AEEA-AEEA-AEEA-AEEA-γGlu-C20 diacid])GGSK([AEEA-AEEA-AEEA-AEEA-γGlu-C20 diacid])-OH; C-terminus assumed), the figures for the IC50 at human GLP-1 receptor [1] (setting [3]) and on human GLP-1 receptor [1] (setting [4]) were 270 nM and 4.1 nM, respectively. Further, the EC50 on human GLP-1 receptor [2] stood at 8.4 pM.

In the case of `CC[C@H](C)[C@H](NC(=O)[C@H](Cc1ccccc1)NC(=O)[C@H](CCC(=O)O)NC(=O)[C@H](CCCNC(=N)N)NC(=O)[C@H](C)NC(=O)[C@H](C)NC(=O)[C@H](CCC(N)=O)NC(=O)[C@H](CCC(=O)O)NC(=O)[C@H](CCC(=O)O)NC(=O)[C@H](CC(C)C)NC(=O)[C@H](Cc1ccc(O)cc1)NC(=O)[C@H](CO)NC(=O)[C@H](CO)NC(=O)[C@@H](NC(=O)[C@H](CC(=O)O)NC(=O)[C@H](CO)NC(=O)[C@@H](NC(=O)[C@H](Cc1ccccc1)NC(=O)[C@@H](NC(=O)CNC(=O)[C@H](CCC(=O)O)NC(=O)C(C)(C)NC(=O)[C@@H](N)Cc1c[nH]cn1)[C@@H](C)O)[C@@H](C)O)C(C)C)C(=O)N[C@@H](C)C(=O)N[C@@H](Cc1c[nH]c2ccccc12)C(=O)N[C@@H](CC(C)C)C(=O)N[C@H](C(=O)N[C@@H](CCCNC(=N)N)C(=O)NCC(=O)N[C@@H](CCCNC(=N)N)C(=O)NCC(=O)N[C@@H](CCCCNC(=O)CCC(=O)NCCCOCCOCCOCCCNC(=O)CC[C@H](NC(=O)C1CCN(C(=O)CCCCCCCCCCCCCCCCCCC(=O)O)CC1)C(=O)O)C(=O)NCC(=O)NCC(=O)N[C@@H](CO)C(=O)N[C@@H](CCCCNC(=O)CCC(=O)NCCCOCCOCCOCCCNC(=O)CC[C@H](NC(=O)C1CCN(C(=O)CCCCCCCCCCCCCCCCCCC(=O)O)CC1)C(=O)O)C(=O)O)C(C)C` [Example 21] (H-H[Aib]EGTFTSDVSSYLEEQAAREFIAWLVRGRGK([Suc-X4])GGSK([Suc-X4])-OH; N-terminus and C-terminus assumed), the IC50 on human GLP-1 receptor [1] (High HSA IC50 (nM), high serum albumin (2.0% HSA final assay concentration)) worked out at 177 nM; on human GLP-1 receptor [1] (Low HSA IC50 (nM), low serum albumin (max. 0.001% final assay concentration)) it was 1.3 nM. The compound further showed an EC50 on human GLP-1 receptor [2] of 19 pM.

With `CC[C@H](C)[C@H](NC(=O)[C@H](Cc1ccccc1)NC(=O)[C@H](CCC(=O)O)NC(=O)[C@H](CCCNC(=N)N)NC(=O)[C@H](C)NC(=O)[C@H](C)NC(=O)[C@H](CCC(N)=O)NC(=O)[C@H](CCC(=O)O)NC(=O)[C@H](CCC(=O)O)NC(=O)[C@H](CC(C)C)NC(=O)[C@H](Cc1ccc(O)cc1)NC(=O)[C@H](CO)NC(=O)[C@H](CO)NC(=O)[C@@H](NC(=O)[C@H](CC(=O)O)NC(=O)[C@H](CO)NC(=O)[C@@H](NC(=O)[C@H](Cc1ccccc1)NC(=O)[C@@H](NC(=O)CNC(=O)[C@H](CCC(=O)O)NC(=O)C(C)(C)NC(=O)[C@@H](N)Cc1c[nH]cn1)[C@@H](C)O)[C@@H](C)O)C(C)C)C(=O)N[C@@H](C)C(=O)N[C@@H](Cc1c[nH]c2ccccc12)C(=O)N[C@@H](CC(C)C)C(=O)N[C@H](C(=O)N[C@@H](CCCNC(=N)N)C(=O)NCC(=O)N[C@@H](CCCNC(=N)N)C(=O)NCC(=O)N[C@@H](CCCCNC(=O)COCC(=O)NCCCOCCOCCOCCCNC(=O)CC[C@H](NC(=O)CCCCCCCCCCCCCCCCCCC(=O)O)C(=O)O)C(=O)NCC(=O)NCC(=O)N[C@@H](CO)C(=O)N[C@@H](CCCCNC(=O)COCC(=O)NCCCOCCOCCOCCCNC(=O)CC[C@H](NC(=O)CCCCCCCCCCCCCCCCCCC(=O)O)C(=O)O)C(=O)O)C(C)C` [Example 22, N{Alpha}([Aib8,Glu22,Arg26,Arg34]-GLP-1-(7-37)-peptidyl)-N{Epsilon}[2-[2-[3-[2-[2-[3-[[(4S)-4-carboxy-4-(19-carboxynonadecanoylamino)butanoyl]amino]propoxy]ethoxy]ethoxy]propylamino]-2-oxoethoxy]acetyl]Lys-Gly-Gly-Ser-N{Epsilon}[2-[2-[3-[2-[2-[3-[[(4S)-4-carboxy-4-(19-carboxynonadecanoylamino)butanoyl]amino]propoxy]ethoxy]ethoxy]propylamino]-2-oxoethoxy]acetyl]Lys] (H-H[Aib]EGTFTSDVSSYLEEQAAREFIAWLVRGRGK(X3)GGSK(X3)-OH; N-terminus and C-terminus assumed), the IC50 at human GLP-1 receptor [1] (setting [3]) was found to be 194 nM; at human GLP-1 receptor [1] (setting [4]), 0.82 nM. Besides, a half-maximal response on human GLP-1 receptor [2] (EC50) required 10 pM.
